Source: patent US11685726B2, “Pharmaceutical compositions of 6-(2-(2H-tetrazol-5-yl)ethyl)-6-fluorodecahydroisoquinoline-3-carboxylic acid and ester derivatives thereof” (Sea Pharmaceuticals LLC, priority 2020, dated 2023)
One block for each compound: values may come before it.

Tests used:
[1] = tested on: 6 Hz psychomotor seizure model in mice; assay: 6 Hz psychomotor seizure model in mice; format: in vivo, mouse; details: DMC
From the text: Adult male Carworth Farms (CF-1) mice (25-35 g) or young male Sprague-Dawley (SD) rats (100-150 g) were obtained from Charles River Laboratories Inc (Wilmington Mass. USA). CF1 mice were typically used for the 6 Hz psychomotor seizure model (6 Hz model described in the section below) but could also be used for the Maximal electroshock seizure (MES) model if performed in mice (Maximal electroshock seizure model described in the section below). SD rats were typically used for MES model but could also be used for 6 Hz psychomotor model if performed in rats. Animals were allowed free access to food and water, except during testing periods. After delivery from supplier lab to the in vivo pharmacology testing lab, animals were allowed sufficient time to acclimate to housing conditions prior to testing. Animals were housed in plastic cages in rooms with controlled humidity, ventilation, and lighting (12 hours lights on and 12 hours darkness). The animals were housed and fed in a manner consistent with the recommendations in the “Guide for Care and Use of Laboratory Animals” (National Research Council), and in accordance with guidelines set by an Institutional Animal Care and Use Committee (IACUC). Animal experiments were conducted in a manner consistent with Animal Research: Reporting of In Vivo Experiments (ARRIVE) guidelines (UK) and were approved by an IACUC. Test compounds or respective vehicle (placebo) were administered using an optimal fluid volume-to-body fluid ratio. Solutions or suspensions of test compounds, reference compounds or vehicles were administered to mice or rats in a volume of 0.01 mL/g body weight (mice) or 0.004 mL/g body weight (rats) by subcutaneous (s.c.) injection, intraperitoneal (i.p.) injection or by oral gavage (p.o.) unless otherwise indicated. Reference drug Levetiracetam or vehicle was administered by intraperitoneal (i.p.) injection.
Mice are given a topical anesthetic on the cornea of each eye prior to placement of corneal electrodes. 6 Hz psychomotor seizures were induced in mice (usually 8 animals per group) using electrical stimulation via corneal electrodes (6 Hz, 0.2 millisecond rectangular pulse, 3 second duration at 22 mA using a Grass 48 stimulator instrument as described in Barton M E et al 2001. Epilepsy Res 47:217-227). Prior to placement of corneal electrodes for electrical stimulation 0.5% tetracaine in saline (Sigma) drops were applied to each eye. Seizures and behaviors that arise from the electrical stimulus in the 6 Hz model include a minor clonic seizure phase followed by stereotyped automatistic behaviors including stun, forelimb clonus, twitching of the vibrissae and Straub-tail. […] Animals not presenting any of these behaviors were considered “protected” from seizures. This serves as a screen for in vivo pharmacological activity of test articles or reference anti-epilepsy drugs and defines anti-seizure activity as shown in several publications [Barton M E et al. 2001. Epilepsy Res. 47:217-227; Barton M E et al. 2003 Epilepsy Res. 56:17-26; Brown W C et al. 1953. J Pharmacol Exp Ther 107:273-283. Metcalf C S et al. 2017a. Epilepsia 58:484-493.; Metcalf C S et al. 2017c. Epilepsia 58:239-246.
Unless otherwise indicated pretreatment times of mice or rats were typically 0.5 hours for respective vehicle, Compounds 1, 3, 4, 6 or other compounds administered by subcutaneous or intraperitoneal route (unless other times indicated). A pretreatment time of 1 hour was used for Compounds 3, 4, 6 or other compounds administered by oral route unless other times indicated. Test compounds or respective vehicles were tested in some cases at other pretreatment times as indicated. A median effective dose (ED50) and 95% confidence interval (CI) were calculated using a Prism (Graphpad software). […]

AMPA receptor = assay: Whole cell patch-clamp recording of s-AMPA induced currents in pyramidal neurons of rat brain prefrontal cortex slices; format: cell-based; details: rat brain slice PFC pyramidal neurons; n=4 to 5 experiments per concentration; read-out: IC50 of inhibition of peak amplitude responses to 20 μM s-AMPA
Method: (§1) Additionally biological activity of compounds as antagonists of AMPA receptors or NMDA receptors (also called ionotropic glutamate-gated ion channels) were conducted using ex vivo functional electrophysiological assays of pyramidal neurons in slices of rat brain prefrontal cortex. Effects of test compounds cf. reference compounds were studied by whole cell patch-clamp electrophysiology recordings of s-AMPA-induced currents or NMDA-induced currents, respectively, using rat brain slice prefrontal cortex (layer V) pyramidal neurons.
Male Sprague Dawley rats were supplied by Charles River Laboratories (Wilmington, Mass. USA) and were housed 4 per cage within a temperature (20.5-23.5° C.) and humidity (30-80%) controlled environment on a 12 hour light/dark cycle with access to food (Teklad Global Soy Protein, Cat. No. T.2920X10, Envigo, Indianapolis, Ind., USA) and water ad libitum. At 4-6 weeks of age rats were terminally anaesthetized using isofluorane [(1-chloro-2,2,2-trifluoroethyl difluoromethyl ether) supplied by Baxter Healthcare Corp, Deerfield, Ill., USA], and decapitated. The brain was removed and 300 μm thick coronal prefrontal cortex (PFC) or sagittal hippocampal slices were sectioned using a Vibratome microtome. After brain removal, and throughout slicing, the tissue was submerged in ice cold […] cerebrospinal fluid (aCSF). Once slices were cut, they were transferred to a beaker containing aCSF and left at room temperature for a minimum of 1 hour before commencing electrophysiological recordings. After this period, individual slices were transferred to a recording chamber continuously perfused with aCSF at a rate of 4-6 mL/min before commencing experiment protocols. aCSF composition (in mM): NaCl, 127; KCl, 1.9; KH2PO4, 1.2; CaCl2), 2.4; MgCl2, 1.3; NaHCO3, 26; D-glucose, 10; in water equilibrated with 95% Oxygen gas-5% CO2 gas (reagent suppliers listed below). Experiments investigating NMDA currents had aCSF supplemented with 10 μM glycine (reagents suppliers listed below). All experiments were conducted following protocols with the approval of an Institutional Animal Care and Use Committee (IACUC).
Whole cell patch-clamp recordings were performed from Layer V prefrontal cortex pyramidal neurons at room temperature using the ‘visualized’ version of the patch-clamp technique. […]
(§2) All test compound experiments were carried out in the voltage-clamp recording configuration of the whole cell patch-clamp technique and all recordings performed at a holding potential of −60 mV. Recordings were monitored on a Dell personal computer (PC) running Axon pClamp software (Molecular Devices, Sunnyvale, Calif., USA) and digitized at 10 kHz. […]

NMDA receptor = assay: Whole cell patch-clamp recording of NMDA induced currents in pyramidal neurons of rat brain prefrontal cortex slices; format: cell-based; details: 30 μM; rat brain slice PFC pyramidal neurons; n=4
Method: as §1
Male Sprague Dawley rats were supplied by Charles River Laboratories (Wilmington, Mass. USA) and were housed 4 per cage within a temperature (20.5-23.5° C.) and humidity (30-80%) controlled environment on a 12 hour light/dark cycle with access to food (Teklad Global Soy Protein, Cat. No. T.2920X10, Envigo, Indianapolis, Ind., USA) and water ad libitum. […]
as §2

Compound: O=C(OC1CCCCC1)[C@@H]1C[C@H]2C[C@@](F)(CCc3nn[nH]n3)CC[C@H]2CN1 [Compound 6, cyclohexyl (3S,4aS,6S,8aR)-6-fluoro-6-[2-(1H-1,2,3,4-tetrazol-5-yl)ethyl]-decahydroisoquinoline-3-carboxylate]
6 Hz Test Results (# mice protected from seizure/# mice tested) ([1]; 13 mg/kg p.o., 1 hour): 8/8

Compound: CCOC(=O)[C@@H]1C[C@H]2C[C@@](F)(CCc3nnn[nH]3)CC[C@H]2CN1 [Compound 3, ethyl (3S,4aS,6S,8aR)-6-fluoro-6-[2-(1H-1,2,3,4-tetrazol-5-yl)ethyl]-decahydroisoquinoline-3-carboxylate]
6 Hz Test Results (# mice protected from seizure/# mice tested) ([1]; 13 mg/kg p.o., 1 hour): 5/8 | 6 Hz Test Results (# mice protected from seizure/# mice tested) ([1]; 13 mg/kg s.c., 0.5 hours): 8/8

Compound: CCC(CC)COC(=O)[C@@H]1C[C@H]2C[C@@](F)(CCc3nnn[nH]3)CC[C@H]2CN1 [Compound 4, 2-ethylbutyl (3S,4aS,6S,8aR)-6-fluoro-6-[2-(1H-1,2,3,4-tetrazol-5-yl)ethyl]-decahydroisoquinoline-3-carboxylate]
6 Hz Test Results (# mice protected from seizure/# mice tested) ([1]; 13 mg/kg p.o., 1 hour): 6/7 | 6 Hz Test Results (# mice protected from seizure/# mice tested) ([1]; 13 mg/kg s.c., 0.5 hours): 8/8

IC50 (AMPA receptor): 481 nM
Compound: O=C(O)[C@@H]1C[C@H]2C[C@@H](CCc3nn[nH]n3)CC[C@H]2CN1 [Tezampanel, reference compound]
inhibition of peak amplitude responses to 50 μM NMDA induced currents (NMDA receptor): 40%+/−2%
